The values below come from US20130316998A1, “METHOD FOR TREATING PANCREATIC CANCER” (Niiki Pharma Acquisition Corp. 2, priority 2010, published 2013).

For assay [1], the system named is pancreatic tumor cell line MIA PaCa2. Put plainly: live-cell staining with Calcein AM / image analysis in 3-D tumor beads. It counts as cell-based. The conditions noted are these: 3-D HuBiogel tumor beads, Day 3. On the procedure: (§1) The compound tris(8-quinolinolato)gallium(III) was tested in a 3-dimentional tumor model derived from pancreatic tumor cell line MIA PaCa2. Specifically, cells were trypsinized, washed, counted by trypan blue exclusion. Tumor beads were then prepared by mixing 20,000 cells/100 of HuBiogel (4 mg/mL) (See U.S. patent application Ser. No. 10/546,506, which is incorporated herein by reference). The 3-D tumor beads were cultivated for 72 hours in multi-well plates with complete media (10% FBS) in a 37° C. incubator +5% CO2. Mini-tumors were treated with various concentrations of the test compound tris(8-quinolinolato)gallium(III) in media (final 0.2-0.3% DMSO) or control (DMSO). Repeated drug treatment was done by removing the culture media and replacing with fresh media with drug compound or DMSO. On Day 3, MTT assay and live-cell staining with Calcein AM were performed (5 beads/assay set).
(§2) Statistical analysis of data sets (Average, T-test, GI-50) was performed using MS-Excel program. The average GI-50 (the drug concentration required for growth inhibition at 50%) is […].

Assay [2] has as its system BxPC-3 cell line. Put plainly: ATCC's MTT Cell Proliferation Assay, BxPC-3. The note with it: BxPC-3, 72 hours post-treatment. It counts as cell-based, human. How it is done: (§3) To test the activities of tris(8-quinolinolato)gallium(III), ATCC's MTT Cell Proliferation Assay® was performed using human pancreatic cancer cell lines PANC-1, BxPC-3, and Capan-1. Stock cultures were allowed to grow to 70-80% confluence for this study. The anti-proliferative activity of tris(8-quinolinolato)gallium(III), against the indicated cell lines was evaluated in vitro using the ATCC's MTT Cell Proliferation Assay (Catalog No. 30-1010K). PANC-1 was grown using DMEM, 10% fetal bovine serum (FBS), 1% of pen/strep/glutamine (PSG) and was seeded with 6E+03 cells/well. […] The plates were left overnight at room temperature in the dark and was read on a plate reader using SoftMax® Pro (version 5.2, Molecular Devices).
(§4) The absorbance data was analyzed as follows: Absorbance values were converted to Percent of Control and plotted against test agent concentrations for IC50 calculations using SoftMax® Pro (version 5.2, Molecular Devices). […] Percent of Control values were calculated by dividing the absorbance values for each test well by the No Drug Control average (column 11 values; cells+vehicle control) and multiplying by 100. Plots of Compound Concentration versus Percent of Control were analyzed using the 4-parameter equation to obtain IC50 values and other parameters that describe the sigmoidal dose response curve. […]

For assay [3], the system named is Capan-1 cell line. The assay is described as follows: ATCC's MTT Cell Proliferation Assay, Capan-1. It counts as cell-based, human. The conditions noted are these: Capan-1, 72 hours post-treatment. On the procedure:
as §3, §4

The test system of assay [4] is PANC-1 cell line. Put plainly: ATCC's MTT Cell Proliferation Assay, PANC-1. It counts as cell-based, human. How it is done: as §3, §4
Assay [5] deals with pancreatic tumor cell line MIA PaCa2. The assay is described as follows: MTT assay in 3-dimentional tumor model (HuBiogel) derived from MIA PaCa2. It counts as cell-based. The note with it: 3-D HuBiogel tumor beads. How it is done: as §1, §2
The test system of assay [6] is advanced-stage pancreatic cancer. The note with it: erlotinib in combination with gemcitabine; Moore et al. 2007; cited from earlier work.
The test system of assay [7] is PANC-1 cells. The conditions noted are these: Guo et al. 2009; Durkin et al. 2003; cited from earlier work.

As to `[Ga+3].[O-]c1cccc2cccnc12.[O-]c1cccc2cccnc12.[O-]c1cccc2cccnc12` [tris(8-quinolinolato)gallium(III)], the “tumor killing in live-cell staining/image analysis” value in assay [1] is on record as “dose-dependent tumor killing”. In addition, the 50% inhibitory concentration (IC50) (in general, the concentration that inhibits the measured activity by half) in assay [2] is 3.2 nM; in assay [3], 8.17 µM; in assay [4] (PANC-1, 72 hours post-treatment, MTT) it was 1030 nM. The “activity in pancreatic cancer cells resistant to gemcitabine and/or erlotinib” value in assay [4] (PANC-1) is given as “active”. In assay [5] (MTT assay on Day 3, read-out: average GI-50 (the drug concentration required for growth inhibition at 50%)), the GI50 amounted to 35.7 µM. Besides, in assay [5] (MTT assay, FIG. 1), the tumor proliferation activity entry is on record as “significantly inhibited tumor proliferation activity”.
As for `C#Cc1cccc(Nc2ncnc3cc(OCCOC)c(OCCOC)cc23)c1` [erlotinib], the “median overall survival benefit” value in assay [6] is listed as “less than four weeks”. Moreover, the “resistance of PANC-1 cells to the drug” value in assay [7] is on record as “resistant”.
As to `Nc1ccn([C@@H]2O[C@H](CO)[C@@H](O)C2(F)F)c(=O)n1` [gemcitabine], in assay [7], the “resistance of PANC-1 cells to the drug” value is recorded as “resistant”.
